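Five compound concentrations were applied to cells in 96-well plates for 48 hours; endpoints were derived by simple linear interpolation of the resulting dose-response curve. TGI: concentration producing complete growth inhibition.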
Assays:
Test in all cases: NCI-60 cell line screen, 48 h
[1] = system: SF-295 CNS
[2] = system: OVCAR-3 ovarian
[3] = system: HCC-2998 colon
[4] = system: CAKI-1 renal
[5] = system: MOLT-4 leukemia
[6] = system: NCI-H460 lung
[7] = system: SW-620 colon
[8] = system: SN12C renal
[9] = system: OVCAR-8 ovarian
[10] = system: M14 melanoma
[11] = system: A549 NSCLC
[12] = system: UACC-257 melanoma
[13] = system: T-47D breast
[14] = system: SF-268 CNS
[15] = system: PC-3 prostate
[16] = system: SK-MEL-5 melanoma
[17] = system: HOP-62 NSCLC
[18] = system: IGROV1 ovarian
[19] = system: NCI/ADR-RES ovarian
[20] = system: HS 578T breast
[21] = system: HCT-116 colon
[22] = system: UACC-62 melanoma
[23] = system: UO-31 renal
[24] = system: SF-539 CNS
[25] = system: NCI-H522 lung
[26] = system: OVCAR-4 ovarian
[27] = system: OVCAR-5 ovarian
[28] = system: EKVX NSCLC
[29] = system: SNB-19 CNS
[30] = system: SNB-75 CNS
[31] = system: MDA-N
[32] = system: MALME-3M melanoma
[33] = system: SK-MEL-28 melanoma
[34] = system: U251 CNS
[35] = system: KM12 colon
[36] = system: 786-0 renal
[37] = system: K-562 leukemia
[38] = system: TK-10 renal
[39] = system: SK-MEL-2 melanoma
[40] = system: HOP-92 NSCLC
[41] = system: MDA-MB-435
[42] = system: MCF7 breast
[43] = system: HCT-15 colon
[44] = system: NCI-H23 lung
[45] = system: DU-145 prostate
[46] = system: MDA-MB-231 breast
[47] = system: ACHN renal
[48] = system: A498 renal
[49] = system: BT-549 breast
[50] = system: SR leukemia
[51] = system: LOX IMVI melanoma
[52] = system: SK-OV-3 ovarian
[53] = system: COLO 205 colon
[54] = system: RXF 393 renal
[55] = system: HT29 colon
[56] = system: HL-60(TB) leukemia
[57] = system: RPMI-8226 leukemia
[58] = system: NCI-H226 lung
[59] = system: M19-MEL melanoma
[60] = system: DLD-1 colon
[61] = system: HOP-18 NSCLC
[62] = system: DMS 114 small cell lung
[63] = system: DMS 273 small cell lung
[64] = system: LXFL 529 NSCLC
[65] = system: KM20L2 colon
[66] = system: SNB-78 CNS
[67] = system: CCRF-CEM leukemia

Compound COc1ccc(C(Nc2ncccn2)c2cc3c(cc2O)OCO3)cc1 (centres undefined) has a TGI [1] greater than 100 µM, a TGI [2] of 32.7 µM and a TGI [3] of 47.4 µM. For the same compound, the TGI [4] was 46.9 µM, the TGI [5] was 82 µM and the TGI [6] was 47.2 µM. The TGI [7] was 28.3 µM, the TGI [8] was 37.8 µM and the TGI [9] was 45.2 µM. The TGI [10] was 39.4 µM, the TGI [11] was greater than 100 µM and the TGI [12] was 36.4 µM. The TGI [13] was 28 µM, the TGI [14] was 38.4 µM and the TGI [15] was 43.2 µM. The TGI [16] was 50.9 µM, the TGI [17] was 54.5 µM and the TGI [18] was 59.3 µM. It also gave a TGI [19] greater than 100 µM, a TGI [20] of 52.4 µM and a TGI [21] of 71.3 µM. The TGI [22] was greater than 100 µM, the TGI [23] was 34.4 µM and the TGI [24] was 33.1 µM. For the same compound, the TGI [25] was 31.7 µM, the TGI [26] was greater than 100 µM and the TGI [27] was 69.6 µM. It also gave a TGI [28] of 55.7 µM, a TGI [29] of 31.1 µM and a TGI [30] of 22.7 µM. For the same compound, the TGI [31] was 42.3 µM, the TGI [32] was 54.6 µM and the TGI [33] was 52.4 µM. For the same compound, the TGI [34] was 28.7 µM, the TGI [35] was 37.8 µM and the TGI [36] was 39.3 µM. For the same compound, the TGI [37] was greater than 100 µM, the TGI [38] was 37.6 µM and the TGI [39] was 46.9 µM. It also gave a TGI [40] greater than 100 µM, a TGI [41] of 50.6 µM and a TGI [42] of 77.3 µM. The TGI [43] was 44.6 µM, the TGI [44] was 35.3 µM and the TGI [45] was 44.4 µM. The TGI [46] was 48.2 µM, the TGI [47] was greater than 100 µM and the TGI [48] was greater than 100 µM. The TGI [49] was 64.3 µM, the TGI [50] was 32.4 µM and the TGI [51] was 32.2 µM. The TGI [52] was 51.2 µM, the TGI [53] was 70.6 µM and the TGI [54] was 36.3 µM. For the same compound, the TGI [55] was 58.4 µM, the TGI [56] was 46 µM and the TGI [57] was greater than 100 µM. The TGI [58] was 44.6 µM.

With COc1ccc(C(=O)C=C2NCCN2)cc1 the TGI [1] was greater than 100 µM, the TGI [2] was greater than 100 µM and the TGI [3] was greater than 100 µM. The TGI [4] was greater than 100 µM, the TGI [5] was greater than 100 µM and the TGI [6] was greater than 100 µM. For the same compound, the TGI [59] was greater than 100 µM, the TGI [7] was greater than 100 µM and the TGI [8] was greater than 100 µM. For the same compound, the TGI [9] was greater than 100 µM, the TGI [10] was greater than 100 µM and the TGI [60] was greater than 100 µM. It also gave a TGI [11] greater than 100 µM, a TGI [12] greater than 100 µM and a TGI [14] greater than 100 µM. The TGI [16] was greater than 100 µM, the TGI [61] was greater than 100 µM and the TGI [62] was greater than 100 µM. For the same compound, the TGI [17] was greater than 100 µM, the TGI [18] was greater than 100 µM and the TGI [21] was greater than 100 µM. It also gave a TGI [63] greater than 100 µM, a TGI [22] greater than 100 µM and a TGI [23] greater than 100 µM. The TGI [24] was greater than 100 µM, the TGI [25] was greater than 100 µM and the TGI [26] was greater than 100 µM. For the same compound, the TGI [27] was greater than 100 µM, the TGI [28] was greater than 100 µM and the TGI [29] was greater than 100 µM. For the same compound, the TGI [30] was greater than 100 µM, the TGI [32] was greater than 100 µM and the TGI [33] was greater than 100 µM. It also gave a TGI [34] greater than 100 µM, a TGI [35] greater than 100 µM and a TGI [36] greater than 100 µM. For the same compound, the TGI [37] was greater than 100 µM, the TGI [38] was greater than 100 µM and the TGI [39] was greater than 100 µM. For the same compound, the TGI [40] was greater than 100 µM, the TGI [44] was greater than 100 µM and the TGI [64] was greater than 100 µM. For the same compound, the TGI [47] was greater than 100 µM, the TGI [65] was greater than 100 µM and the TGI [48] was greater than 100 µM. It also gave a TGI [50] greater than 100 µM, a TGI [51] greater than 100 µM and a TGI [52] greater than 100 µM. The TGI [53] was greater than 100 µM, the TGI [54] was greater than 100 µM and the TGI [66] was greater than 100 µM. It also gave a TGI [67] greater than 100 µM, a TGI [55] greater than 100 µM and a TGI [56] greater than 100 µM. For the same compound, the TGI [57] was greater than 100 µM and the TGI [58] was greater than 100 µM.
